Measurements reported in patent US12539292B2, “BRM targeting compounds and associated methods of use” (Arvinas Operations, Inc., priority 2018, dated 2026).

Target: T1, BRM (Homo sapiens, UniProt P51531)
T1 construct: In-Cell Western Screen of BRM Degradation in SW1573 Cells; endogenous in cells; host or cells: SW1573
Assay: In-cell Western screen of BRM degradation in SW1573 cells (Dmax and DC50)
Assay type: cell-based
Conditions: BRM degradation, SW1573 cells; for DC50: read-out: DC50; for Dmax: read-out: Dmax (%) (% degraded)
In short: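 Overnight compound treatment (18-20 h, final DMSO 0.1%) of SW1573 cells in DMEM with 10% FBS precedes fixation and in-cell Western staining with 800/680 nm dye-labelled secondaries. Plate images give DC50 and maximal degradation.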

[1] = tested at the top concentration of between 0.3 and 10 μM

T1 sequence (P51531 whole entry): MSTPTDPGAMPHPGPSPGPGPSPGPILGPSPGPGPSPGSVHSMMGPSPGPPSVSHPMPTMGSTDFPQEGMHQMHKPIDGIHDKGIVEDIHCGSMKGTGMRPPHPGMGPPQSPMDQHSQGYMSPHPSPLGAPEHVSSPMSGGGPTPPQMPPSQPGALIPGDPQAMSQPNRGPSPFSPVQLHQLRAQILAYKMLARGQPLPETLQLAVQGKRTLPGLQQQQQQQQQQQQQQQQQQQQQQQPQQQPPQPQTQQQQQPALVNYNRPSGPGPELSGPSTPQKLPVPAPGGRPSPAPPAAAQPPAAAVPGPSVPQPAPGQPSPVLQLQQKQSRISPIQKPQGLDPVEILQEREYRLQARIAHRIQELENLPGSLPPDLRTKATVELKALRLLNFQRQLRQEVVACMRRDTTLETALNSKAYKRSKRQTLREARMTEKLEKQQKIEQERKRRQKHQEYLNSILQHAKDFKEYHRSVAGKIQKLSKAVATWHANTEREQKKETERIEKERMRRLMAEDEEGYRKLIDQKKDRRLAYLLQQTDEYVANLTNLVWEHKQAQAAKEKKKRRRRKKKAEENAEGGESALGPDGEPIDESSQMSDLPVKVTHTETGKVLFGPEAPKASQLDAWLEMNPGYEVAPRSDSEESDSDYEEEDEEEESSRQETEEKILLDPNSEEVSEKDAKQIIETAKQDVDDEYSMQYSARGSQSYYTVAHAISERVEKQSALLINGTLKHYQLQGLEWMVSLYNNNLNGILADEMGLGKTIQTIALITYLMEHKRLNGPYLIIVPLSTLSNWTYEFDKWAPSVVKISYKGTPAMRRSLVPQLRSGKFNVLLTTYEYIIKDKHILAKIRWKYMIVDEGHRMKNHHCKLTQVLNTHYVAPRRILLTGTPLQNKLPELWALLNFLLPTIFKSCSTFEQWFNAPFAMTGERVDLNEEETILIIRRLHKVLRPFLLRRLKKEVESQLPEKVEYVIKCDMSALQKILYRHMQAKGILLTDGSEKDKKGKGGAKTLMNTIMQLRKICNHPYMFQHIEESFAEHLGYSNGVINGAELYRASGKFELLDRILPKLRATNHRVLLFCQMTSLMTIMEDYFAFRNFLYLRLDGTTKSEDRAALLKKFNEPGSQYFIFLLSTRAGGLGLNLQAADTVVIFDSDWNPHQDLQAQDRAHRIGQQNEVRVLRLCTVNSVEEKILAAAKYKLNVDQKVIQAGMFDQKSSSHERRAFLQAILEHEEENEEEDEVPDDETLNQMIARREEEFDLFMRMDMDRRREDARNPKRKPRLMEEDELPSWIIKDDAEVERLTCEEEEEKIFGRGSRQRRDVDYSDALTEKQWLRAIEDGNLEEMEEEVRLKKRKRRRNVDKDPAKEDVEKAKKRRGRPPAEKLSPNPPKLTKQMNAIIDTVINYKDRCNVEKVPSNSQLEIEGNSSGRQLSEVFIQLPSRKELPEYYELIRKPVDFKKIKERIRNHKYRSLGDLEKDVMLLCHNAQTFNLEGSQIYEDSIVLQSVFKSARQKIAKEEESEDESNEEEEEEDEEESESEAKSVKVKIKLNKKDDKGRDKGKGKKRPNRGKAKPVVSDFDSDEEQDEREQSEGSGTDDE

Row | Compound | DC50 [nM] | Dmax [1] [%] | Dmax (%) (% degraded) [1]
1 | COc1cc(-c2scnc2C)ccc1CNC(=O)[C@@H]1C[C@@H](O)CN1C(=O)[C@H](c1cc(OCCN2CCC(O[C@H]3C[C@H](Oc4cc(N5C6CCC5CN(c5cc(-c7ccccc7O)nnc5N)C6)ccn4)C3)CC2)no1)C(C)C [compound 214, (2S,4R)-1-((2S)-2-(3-(2-(4-((1r,3S)-3-((4-(3-(3-amino-6-(2-hydroxyphenyl)pyridazin-4-yl)-3,8-diazabicyclo[3.2.1]octan-8-yl)pyridin-2-yl)oxy)cyclobutoxy)piperidin-1-yl)ethoxy)isoxazol-5-yl)-3-methylbutanoyl)-4-hydroxy-N-(2-methoxy-4-(4-methylthiazol-5-yl)benzyl)pyrrolidine-2-carboxamide] | > 30 | – | –
2 | COc1cc(-c2scnc2C)ccc1CNC(=O)[C@@H]1C[C@@H](O)CN1C(=O)[C@@H](c1cc(OCCN2CCC(O[C@H]3C[C@H](Oc4cc(N5C6CCC5CN(c5cc(-c7ccccc7O)nnc5N)C6)ccn4)C3)CC2)no1)C(C)C [compound 215, (2S,4R)-1-((2R)-2-(3-(2-(4-((1r,3R)-3-((4-(3-(3-amino-6-(2-hydroxyphenyl)pyridazin-4-yl)-3,8-diazabicyclo[3.2.1]octan-8-yl)pyridin-2-yl)oxy)cyclobutoxy)piperidin-1-yl)ethoxy)isoxazol-5-yl)-3-methylbutanoyl)-4-hydroxy-N-(2-methoxy-4-(4-methylthiazol-5-yl)benzyl)pyrrolidine-2-carboxamide] | < 2.5 | > 75 | –
3 | Cc1ncsc1-c1ccc([C@H](C)NC(=O)[C@@H]2C[C@@H](O)CN2C(=O)[C@@H](c2cc(OCCN3CCC(O[C@H]4C[C@H](C#Cc5cc(N6C7CCC6CN(c6cc(-c8ccccc8O)nnc6N)C7)ccn5)C4)CC3)no2)C(C)C)cc1 [compound 216, (2S,4R)-1-((2R)-2-(3-(2-(4-((1r,3R)-3-((4-(3-(3-amino-6-(2-hydroxyphenyl)pyridazin-4-yl)-3,8-diazabicyclo[3.2.1]octan-8-yl)pyridin-2-yl)ethynyl)cyclobutoxy)piperidin-1-yl)ethoxy)isoxazol-5-yl)-3-methylbutanoyl)-4-hydroxy-N-((S)-1-(4-(4-methylthiazol-5-yl)phenyl)ethyl)pyrrolidine-2-carboxamide] | < 2.5 | > 75 | –
4 | Cc1ncsc1-c1ccc([C@H](C)NC(=O)[C@@H]2C[C@@H](O)CN2C(=O)[C@H](c2cc(OCCCN3CCC(O[C@H]4C[C@H](Oc5cc(N6C7CCC6CN(c6cc(-c8ccccc8O)nnc6N)C7)ccn5)C4)CC3)no2)C(C)C)cc1 [compound 217, (2S,4R)-1-((2S)-2-(3-(3-(4-((1r,3S)-3-((4-(3-(3-amino-6-(2-hydroxyphenyl)pyridazin-4-yl)-3,8-diazabicyclo[3.2.1]octan-8-yl)pyridin-2-yl)oxy)cyclobutoxy)piperidin-1-yl)propoxy)isoxazol-5-yl)-3-methylbutanoyl)-4-hydroxy-N-((S)-1-(4-(4-methylthiazol-5-yl)phenyl)ethyl)pyrrolidine-2-carboxamide] | 2.5 to 10 | > 75 | –
5 | Cc1ncsc1-c1ccc([C@H](C)NC(=O)[C@@H]2C[C@@H](O)CN2C(=O)[C@@H](c2cc(OCCCN3CCC(O[C@H]4C[C@H](Oc5cc(N6C7CCC6CN(c6cc(-c8ccccc8O)nnc6N)C7)ccn5)C4)CC3)no2)C(C)C)cc1 [compound 218, (2S,4R)-1-((2R)-2-(3-(3-(4-((1r,3R)-3-((4-(3-(3-amino-6-(2-hydroxyphenyl)pyridazin-4-yl)-3,8-diazabicyclo[3.2.1]octan-8-yl)pyridin-2-yl)oxy)cyclobutoxy)piperidin-1-yl)propoxy)isoxazol-5-yl)-3-methylbutanoyl)-4-hydroxy-N-((S)-1-(4-(4-methylthiazol-5-yl)phenyl)ethyl)pyrrolidine-2-carboxamide] | < 2.5 | > 75 | –
6 | CC(C)[C@H](C(=O)N1C[C@H](O)C[C@H]1C(=O)N[C@@H](C)c1ccc(-c2scnc2CO)cc1)c1cc(OCCN2CCC(O[C@H]3C[C@H](Oc4cc(N5C6CCC5CN(c5cc(-c7ccccc7O)nnc5N)C6)ccn4)C3)CC2)no1 [compound 219, (2S,4R)-1-((2S)-2-(3-(2-(4-((1r,3S)-3-((4-(3-(3-amino-6-(2-hydroxyphenyl)pyridazin-4-yl)-3,8-diazabicyclo[3.2.1]octan-8-yl)pyridin-2-yl)oxy)cyclobutoxy)piperidin-1-yl)ethoxy)isoxazol-5-yl)-3-methylbutanoyl)-4-hydroxy-N-((S)-1-(4-(4-(hydroxymethyl)thiazol-5-yl)phenyl)ethyl)pyrrolidine-2-carboxamide] | > 30 | – | –
7 | Cc1ncsc1-c1ccc(CNC(=O)[C@@H]2C[C@@H](O)CN2C(=O)[C@H](c2cc(OCC#Cc3ccc(O[C@H]4C[C@H](Oc5cc(N6C7CCC6CN(c6cc(-c8ccccc8O)nnc6N)C7)ccn5)C4)cn3)no2)C(C)C)cc1 [compound 220, (2S,4R)-1-((2S)-2-(3-((3-(5-((1r,3S)-3-((4-(3-(3-amino-6-(2-hydroxyphenyl)pyridazin-4-yl)-3,8-diazabicyclo[3.2.1]octan-8-yl)pyridin-2-yl)oxy)cyclobutoxy)pyridin-2-yl)prop-2-yn-1-yl)oxy)isoxazol-5-yl)-3-methylbutanoyl)-4-hydroxy-N-(4-(4-methylthiazol-5-yl)benzyl)pyrrolidine-2-carboxamide] | 10 to 30 | > 75 | –
8 | Cc1ncsc1-c1ccc(CNC(=O)[C@@H]2C[C@@H](O)CN2C(=O)[C@@H](c2cc(OCC#Cc3ccc(O[C@H]4C[C@H](Oc5cc(N6C7CCC6CN(c6cc(-c8ccccc8O)nnc6N)C7)ccn5)C4)cn3)no2)C(C)C)cc1 [compound 221, (2S,4R)-1-((2R)-2-(3-((3-(5-((1r,3R)-3-((4-(3-(3-amino-6-(2-hydroxyphenyl)pyridazin-4-yl)-3,8-diazabicyclo[3.2.1]octan-8-yl)pyridin-2-yl)oxy)cyclobutoxy)pyridin-2-yl)prop-2-yn-1-yl)oxy)isoxazol-5-yl)-3-methylbutanoyl)-4-hydroxy-N-(4-(4-methylthiazol-5-yl)benzyl)pyrrolidine-2-carboxamide] | < 2.5 | > 75 | –
9 | Cc1ncsc1-c1ccc([C@H](C)NC(=O)[C@@H]2C[C@@H](O)CN2C(=O)[C@H](c2onc(OCCN3CCC(O[C@H]4C[C@H](Oc5cc(N6C7CCC6CN(c6cc(-c8ccccc8O)nnc6N)C7)ccn5)C4)CC3)c2Cl)C(C)C)cn1 [compound 222, (2S,4R)-1-((2S)-2-(3-(2-(4-((1r,3S)-3-((4-(3-(3-amino-6-(2-hydroxyphenyl)pyridazin-4-yl)-3,8-diazabicyclo[3.2.1]octan-8-yl)pyridin-2-yl)oxy)cyclobutoxy)piperidin-1-yl)ethoxy)-4-chloroisoxazol-5-yl)-3-methylbutanoyl)-4-hydroxy-N-((S)-1-(6-(4-methylthiazol-5-yl)pyridin-3-yl)ethyl)pyrrolidine-2-carboxamide] | > 30 | – | –
10 | Cc1ncsc1-c1ccc([C@H](C)NC(=O)[C@@H]2C[C@@H](O)CN2C(=O)[C@@H](c2onc(OCCN3CCC(O[C@H]4C[C@H](Oc5cc(N6C7CCC6CN(c6cc(-c8ccccc8O)nnc6N)C7)ccn5)C4)CC3)c2Cl)C(C)C)cn1 [compound 223, (2S,4R)-1-((2R)-2-(3-(2-(4-((1r,3R)-3-((4-(3-(3-amino-6-(2-hydroxyphenyl)pyridazin-4-yl)-3,8-diazabicyclo[3.2.1]octan-8-yl)pyridin-2-yl)oxy)cyclobutoxy)piperidin-1-yl)ethoxy)-4-chloroisoxazol-5-yl)-3-methylbutanoyl)-4-hydroxy-N-((S)-1-(6-(4-methylthiazol-5-yl)pyridin-3-yl)ethyl)pyrrolidine-2-carboxamide] | 2.5 to 10 | > 75 | –
11 | Cc1ncsc1-c1ccc(CNC(=O)[C@@H]2C[C@@H](O)CN2C(=O)[C@H](c2cc(OCCN3CCC(O[C@H]4C[C@H](Oc5cc(N6C7CCC6CN(c6cc(-c8ccccc8O)nnc6N)C7)ccn5)C4)CC3)no2)C(C)C)c(C#N)c1 [compound 224, (2S,4R)-1-((2S)-2-(3-(2-(4-((1r,3S)-3-((4-(3-(3-amino-6-(2-hydroxyphenyl)pyridazin-4-yl)-3,8-diazabicyclo[3.2.1]octan-8-yl)pyridin-2-yl)oxy)cyclobutoxy)piperidin-1-yl)ethoxy)isoxazol-5-yl)-3-methylbutanoyl)-N-(2-cyano-4-(4-methylthiazol-5-yl)benzyl)-4-hydroxypyrrolidine-2-carboxamide] | > 30 | – | –
12 | Cc1ncsc1-c1ccc(CNC(=O)[C@@H]2C[C@@H](O)CN2C(=O)[C@@H](c2cc(OCCN3CCC(O[C@H]4C[C@H](Oc5cc(N6C7CCC6CN(c6cc(-c8ccccc8O)nnc6N)C7)ccn5)C4)CC3)no2)C(C)C)c(C#N)c1 [compound 225, (2S,4R)-1-((2R)-2-(3-(2-(4-((1r,3R)-3-((4-(3-(3-amino-6-(2-hydroxyphenyl)pyridazin-4-yl)-3,8-diazabicyclo[3.2.1]octan-8-yl)pyridin-2-yl)oxy)cyclobutoxy)piperidin-1-yl)ethoxy)isoxazol-5-yl)-3-methylbutanoyl)-N-(2-cyano-4-(4-methylthiazol-5-yl)benzyl)-4-hydroxypyrrolidine-2-carboxamide] | < 2.5 | > 75 | –
13 | Cc1ncsc1-c1ccc([C@H](C)NC(=O)[C@@H]2C[C@@H](O)CN2C(=O)[C@H](c2cc(OCCC#Cc3ccc(OC4CC(Oc5cc(N6C7CC[C@@H]6CN(c6cc(-c8ccccc8O)nnc6N)C7)ccn5)C4)cn3)no2)C(C)C)cc1 (stereo partly drawn) [compound 226, (2S,4R)-1-((2S)-2-(3-((4-(5-((1r,3r)-3-((4-(3-(3-amino-6-(2-hydroxyphenyl)pyridazin-4-yl)-3,8-diazabicyclo[3.2.1]octan-8-yl)pyridin-2-yl)oxy)cyclobutoxy)pyridin-2-yl)but-3-yn-1-yl)oxy)isoxazol-5-yl)-3-methylbutanoyl)-4-hydroxy-N-((S)-1-(4-(4-methylthiazol-5-yl)phenyl)ethyl)pyrrolidine-2-carboxamide] | 10 to 30 | – | A (A > 75)
